Results: US10072011B2, “Substituted bridged urea analogs as sirtuin modulators” (GlaxoSmithKline Intellectual Property (No.2) Limited, priority 2014, dated 2018)
Like-named read-outs stand apart in the source and are kept apart here.

Target: T1, SIRT1 (Homo sapiens, UniProt Q96EB6)
T1 sequence (Q96EB6 1-747): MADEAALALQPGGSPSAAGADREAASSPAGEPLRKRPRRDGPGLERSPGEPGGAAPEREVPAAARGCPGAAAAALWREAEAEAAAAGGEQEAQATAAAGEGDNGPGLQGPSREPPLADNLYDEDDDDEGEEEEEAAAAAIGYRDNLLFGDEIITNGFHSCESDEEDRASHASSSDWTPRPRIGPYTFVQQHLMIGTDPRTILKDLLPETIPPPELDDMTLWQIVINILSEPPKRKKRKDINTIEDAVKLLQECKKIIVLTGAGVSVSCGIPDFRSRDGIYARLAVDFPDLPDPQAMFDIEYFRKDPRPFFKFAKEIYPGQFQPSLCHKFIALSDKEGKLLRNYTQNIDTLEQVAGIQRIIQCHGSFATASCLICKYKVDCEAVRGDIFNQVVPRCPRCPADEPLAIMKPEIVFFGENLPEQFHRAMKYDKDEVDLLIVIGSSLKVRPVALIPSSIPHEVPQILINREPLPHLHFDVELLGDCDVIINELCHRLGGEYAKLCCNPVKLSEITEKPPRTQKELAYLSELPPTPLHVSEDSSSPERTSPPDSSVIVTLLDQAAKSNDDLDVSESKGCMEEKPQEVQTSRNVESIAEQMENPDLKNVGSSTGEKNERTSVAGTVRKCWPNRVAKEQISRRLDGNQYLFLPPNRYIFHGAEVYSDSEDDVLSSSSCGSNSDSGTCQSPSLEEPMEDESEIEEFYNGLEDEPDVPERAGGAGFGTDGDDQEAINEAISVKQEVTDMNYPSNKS
Assay: Trp mass spectrometry assay of SIRT1 activation (Ac-R-H-K-K(Ac)-W-NH2 peptide)
Assay type: biochemical
Conditions: for Emax: 25 min, read-out: TRP MAX RESP (percent maximum fold activation)
Method in brief: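 Mass spectrometry read-out (OAADPR formed, or deacetylated Trp peptide) after a 25 min NAD-dependent deacetylation by E. coli-expressed His-SIRT1, stopped with formic acid.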

[1] = Trp peptide 0.5 μM, 120 μM βNAD+, 10 nM SIRT1, 25 min at 25° C., relative to control (100%)
[2] = Trp peptide 0.5 μM, 120 μM βNAD+, 10 nM SIRT1, 25 min at 25° C.

| Emax [1] | TRP Activity (EC1.5, concentration of test compound that results in 150% activation of SIRT1) [2] | TRP MAX RESP (percent maximum fold activation) [1] | SMILES | Emax |
| --- | --- | --- | --- | --- |
| > 150% | B (EC1.5 1-25 μM) | – | O=C(NCc1cscn1)c1ccc2c(n1)N(C(=O)Nc1cc(OC[C@H](O)CO)ccn1)[C@H]1CCN2C1 [Example 199, (4S)—N5-(4-((R)-2,3-dihydroxypropoxy)pyridin-2-yl)-N7-(thiazol-4-ylmethyl)-3,4-dihydro-1,4-methanopyrido[2,3-b][1,4]diazepine-5,7(2H)-dicarboxamide] | – |
| > 150% | B (EC1.5 1-25 μM) | – | C[C@@H](NC(=O)c1ccc2c(n1)N(C(=O)Nc1cn(C)ccc1=O)[C@H]1CCN2C1)C(F)(F)F [Example 188, (4S)—N5-(1-methyl-4-oxo-1,4-dihydropyridin-3-yl)-N7-((R)-1,1,1-trifluoropropan-2-yl)-3,4-dihydro-1,4-methanopyrido[2,3-b][1,4]diazepine-5,7(2H)-dicarboxamide] | – |
| > 150% | A (EC1.5<1 μM) | – | O=C(N[C@H](C1CC1)C(F)(F)F)c1ccc2c(n1)N(C(=O)Nc1cc(OC[C@H](O)CO)ccn1)[C@H]1CCN2C1 [Example 88, (4S)—N7-((R)-1-cyclopropyl-2,2,2-trifluoroethyl)-N5-(4-((R)-2,3-dihydroxypropoxy)pyridin-2-yl)-3,4-dihydro-1,4-methanopyrido[2,3-b][1,4]diazepine-5,7(2H)-dicarboxamide] | – |
| > 150% | A (EC1.5<1 μM) | – | Cc1ncc(-c2ccnc(NC(=O)N3c4nc(C(=O)N[C@H](CO)C(F)(F)F)ccc4N4CC[C@H]3C4)c2)o1 (single isomer, unassigned) [Example 125] | – |
| < 150% | A (EC1.5<1 μM) | – | Cc1ncc(-c2cc(NC(=O)N3c4nc(C(=O)N[C@H](C)C(F)(F)F)ccc4N4CC[C@H]3C4)ncn2)o1 [Example 318, (4S)—N5-(6-(2-methyloxazol-5-yl)pyrimidin-4-yl)-N7-((R)-1,1,1-trifluoropropan-2-yl)-3,4-dihydro-1,4-methanopyrido[2,3-b][1,4]diazepine-5,7(2H)-dicarboxamide] | – |
| > 150% | A (EC1.5<1 μM) | – | O=C(NCC(F)(F)F)c1ccc2c(n1)N(C(=O)Nc1cnc(OC[C@H](O)CO)cn1)[C@H]1CCN2C1 [Example 95, (4S)—N5-(5-((R)-2,3-dihydroxypropoxy)pyrazin-2-yl)-N7-(2,2,2-trifluoroethyl)-3,4-dihydro-1,4-methanopyrido[2,3-b][1,4]diazepine-5,7(2H)-dicarboxamide] | – |
| < 150% | A (EC1.5<1 μM) | – | C[C@@H](NC(=O)c1ccc2c(n1)N(C(=O)Nc1cc(N3CCOCC3)ccn1)[C@H]1CCN2C1)C(F)(F)F [Example 307, (4S)—N5-(4-morpholinopyridin-2-yl)-N7-((R)-1,1,1-trifluoropropan-2-yl)-3,4-dihydro-1,4-methanopyrido[2,3-b][1,4]diazepine-5,7(2H)-dicarboxamide] | – |
| > 150% | A (EC1.5<1 μM) | – | C[C@@H](NC(=O)c1ccc2c(n1)N(C(=O)Nc1n[nH]c3ncccc13)[C@H]1CCN2C1)C(F)(F)F [Example 163, (4S)—N5-(1H-pyrazolo[3,4-b]pyridin-3-yl)-N7-((R)-1,1,1-trifluoropropan-2-yl)-3,4-dihydro-1,4-methanopyrido[2,3-b][1,4]diazepine-5,7(2H)-dicarboxamide] | – |
| > 150% | A (EC1.5<1 μM) | – | O=C(NC1CCC1)c1ccc2c(n1)N(C(=O)Nc1ccccn1)[C@H]1CCN2C1 [Example 7, (4S)—N-7-cyclobutyl-N-5-(pyridin-2-yl)-3,4-dihydro-1,4-methanopyrido [2,3-b] [1, 4] diazepine-5, 7(2H)-dicarboxamide] | – |
| > 150% | A (EC1.5<1 μM) | – | O=C(NC(CO)C(F)(F)F)c1ccc2c(n1)N(C(=O)Nc1ccccn1)[C@H]1CCN2C1 (stereo partly drawn) [Example 8, (4S)—N-5-(pyridin-2-yl)-N-7-(1,1,1-trifluoro-3-hydroxypropan-2-yl)-3,4-dihydro-1,4-methanopyrido[2,3-b][1,4]diazepine-5,7(2H)-dicarboxamide] | – |
| > 150% | A (EC1.5<1 μM) | – | Cc1ccc(NC(=O)N2c3nc(C(=O)N[C@H](C)C(F)(F)F)ccc3N3CC[C@H]2C3)nc1 [Example 56, (4S)—N5-(5-methylpyridin-2-yl)-N7-((R)-1,1,1-trifluoropropan-2-yl)-3,4-dihydro-1,4-methanopyrido[2,3-b][1,4]diazepine-5,7(2H)-dicarboxamide] | – |
| – | B (EC1.5 1-25 μM) | A (Fold activation≥150%) | O=C(NC1CC1(F)F)c1ccc2c(n1)N(C(=O)Nc1cc(OCCO)ccn1)[C@H]1CCN2C1 (single isomer, unassigned) [Example 263] | – |
| > 150% | A (EC1.5<1 μM) | – | Cc1ncc(-c2ccnc(NC(=O)N3c4nc(C(=O)NCC(F)(F)F)ccc4N4CC[C@H]3C4)n2)o1 [Example 157, (4S)—N5-(4-(2-methyloxazol-5-yl)pyrimidin-2-yl)-N7-(2,2,2-trifluoroethyl)-3,4-dihydro-1,4-methanopyrido[2,3-b][1,4]diazepine-5,7(2H)-dicarboxamide] | – |
| > 150% | B (EC1.5 1-25 μM) | – | O=C(c1ccc2c(n1)N(C(=O)Nc1ccccn1)[C@H]1CCN2C1)N1CCC(F)(F)C1 [Example 3, (4S)-7-(3,3-difluoropyrrolidine-1-carbonyl)-N-(pyridin-2-yl)-3,4-dihydro-1,4-methanopyrido[2,3-b] [1, 4] diazepine-5(2H)-carboxamide] | – |
| > 150% | A (EC1.5<1 μM) | – | Cc1ncc(-c2ccnc(NC(=O)N3c4nc(C(=O)N[C@H](C)C(F)(F)F)ccc4N4CC[C@H]3C4)c2)o1 [Example 128, (4S)—N5-(4-(2-methyloxazol-5-yl)pyridin-2-yl)-N7-((R)-1,1,1-trifluoropropan-2-yl)-3,4-dihydro-1,4-methanopyrido[2,3-b][1,4]diazepine-5,7(2H)-dicarboxamide] | – |
| > 150% | B (EC1.5 1-25 μM) | – | Cc1ccc2c(NC(=O)N3c4nc(C(=O)NCC(N)C(F)(F)F)ccc4N4CC[C@H]3C4)n[nH]c2n1 (single isomer, unassigned) [Example 197] | – |
| > 150% | B (EC1.5 1-25 μM) | – | NCC(NC(=O)c1ccc2c(n1)N(C(=O)Nc1ccccn1)[C@H]1CCN2C1)C(F)(F)F (single isomer, unassigned) [Example 223] | – |
| < 150% | C (EC1.5>25 μM) | – | O=C(NCC(F)(F)F)c1ccc2c(n1)N(C(=O)Nc1ccc3[nH]c(=O)[nH]c3c1)[C@H]1CCN2C1 [Example 232, (4S)—N5-(2-oxo-2,3-dihydro-1H-benzo[d]imidazol-5-yl)-N7-(2,2,2-trifluoroethyl)-3,4-dihydro-1,4-methanopyrido[2,3-b][1,4]diazepine-5,7(2H)-dicarboxamide] | – |
| > 150% | A (EC1.5<1 μM) | – | C[C@@H](NC(=O)c1ccc2c(n1)N(C(=O)Nc1ncc(OC[C@H](O)CO)cn1)[C@H]1CCN2C1)C(F)(F)F [Example 173, (4S)—N5-(5-((R)-2,3-dihydroxypropoxy)pyrimidin-2-yl)-N7-((R)-1,1,1-trifluoropropan-2-yl)-3,4-dihydro-1,4-methanopyrido[2,3-b][1,4]diazepine-5,7(2H)-dicarboxamide] | – |
| > 150% | A (EC1.5<1 μM) | – | CC#CCNC(=O)c1ccc2c(n1)N(C(=O)Nc1ccccn1)[C@H]1CCN2C1 [Example 109, (4S)—N7-(but-2-yn-1-yl)-N5-(pyridin-2-yl)-3,4-dihydro-1,4-methanopyrido[2,3-b][1,4]diazepine-5,7(2H)-dicarboxamide] | – |

| SMILES | Emax [1] | TRP Activity (EC1.5, concentration of test compound that results in 150% activation of SIRT1) [2] | TRP MAX RESP (percent maximum fold activation) [1] | Emax |
| --- | --- | --- | --- | --- |
| O=C(NCC(F)F)c1ccc2c(n1)N(C(=O)Nc1ccccn1)[C@H]1CCN2C1 [Example 116, (4S)—N7-(2,2-difluoroethyl)-N5-(pyridin-2-yl)-3,4-dihydro-1,4-methanopyrido[2,3-b][1,4]diazepine-5,7(2H)-dicarboxamide] | – | A (EC1.5<1 μM) | – | > 150% |
